In article PMC10143845, “Series of Organotin(IV) Compounds with Different Dithiocarbamate Ligands Induced Cytotoxicity, Apoptosis and Cell Cycle Arrest on Jurkat E6.1, T Acute Lymphoblastic Leukemia Cells” (Molecules, 2023):
Entries after “also recorded” stand apart in the source; their conditions may differ. Where two headings read alike, the source gives them in different places.

Experiments:
[1] = tested on: WIL2-NS non-cancerous cells; test: WST-1 cytotoxicity assay on WIL2-NS cells; format: cell-based; details: read-out: Value of IC50 WIL2-NS
Description: (§1) The Jurkat E6.1 (TIB-152™) and WIL2-NS (CRL-8155™) cell lines were purchased from the American Type Culture Collection. These cells were cultured in Roswell Park Memorial Institute Medium 1640, RPMI-1640 supplemented with 10% Fetal Bovine Serum (FBS) and 1% penicillin-streptomycin to obtain the complete growth medium. The cells were incubated at 37 °C with 5% CO2 (New Brunswick Galaxy 170 S, Hamburg, Germany).
(§2) Jurkat E6.1 and WIL2-NS cell lines were cultured in 75 cm^2 flasks and seeded in 96-well culture plates with a final concentration of 1 × 10^6 cells/mL. The cells were exposed to organotin(IV) dithiocarbamate compounds with the highest concentration of 5.0 μM. Vincristine was used in this study as a positive control with its highest concentration, at 5.0 μM, while untreated cells (cells and complete medium only) were used as the negative control. Serial dilution methods are used to obtain the desired concentration gradient and the cells were then exposed to the compounds overnight (24 h). After the incubation period, the WST-1 solution (Roche, Basel, Switzerland) was added in a ratio of 1:10 to the suspension volume in the wells and incubated for another 4 h. Finally, the cells’ optical density (OD) was measured using an ELISA microplate reader (Multiskan FC, Thermo Scientific, Waltham, MA, USA) at 440 nm wavelength. The data obtained were analyzed using GraphPad Prism software (Dotmatics) to determine the IC50 values.

[2] = tested on: Jurkat E6.1 human T acute lymphoblastic leukemia cell line; test: WST-1 cytotoxicity assay on Jurkat E6.1 cells; details: for Selectivity Index (SI): IC50 non-cancerous cell line (WIL2-NS) / IC50 leukemia cell line (Jurkat E6.1); for IC50: read-out: Value of IC50 Jurkat E6.1; for kind of effect on the cells (cytostatic or cytotoxic): Jurkat E6.1, WST-1, up to 5.0 μM, 24 h
Description: as §1, §2
(§3) The selectivity index is determined by dividing the cytotoxic activity (IC50 value) of each compound on a non-cancerous cell line (WIL2-NS) to a leukemia cell line (Jurkat E6.1) using the following equation:SI = IC50 for non cancerous cell line IC50 for cancerous cell line

[3] = tested on: Jurkat E6.1 cells; test: Annexin V-FITC/PI apoptosis assay (mode of cell death) by flow cytometry; format: cell-based, human; details: Jurkat E6.1, treated at IC50 concentration, 24 h; for cell population in early apoptotic phase / cell population in late apoptotic phase: mean ± SEM; for total apoptosis population: early + late apoptosis
Description: Apoptosis assay was performed according to the manufacturer’s instructions using Annexin V-FITC/PI staining kit (BD Biosciences, East Rutherford, NJ, USA). The Jurkat E6.1 cells were seeded in a 6-well plate with a final concentration of 5.0 × 10^5 cell/mL. […] After the incubation period, 500 μL of cells were harvested and transferred into a microcentrifuge tube. The sample was centrifuged at 1500 rpm for 5 min at 4 °C (Mikro 200R, Hettich, Kirchlengern, Germany) and the supernatant was discarded, and 500 μL of cold PBS was added to the sample followed by another centrifugation for 5 min, then the supernatant was discarded. Next, 150 μL of Annexin V binding buffer and 5.0 μL of Annexin V-FITC were added to the sample in the dark and then incubated for 15 min at room temperature. After that, 3.0 μL of propidium iodide (PI) was added to the samples. The samples then incubated for another 2 min at room temperature. Finally, 350 μL of Annexin V binding buffer was added to the samples and transferred into Falcon tubes. The samples were then analyzed using a BD FACS Canto II flow cytometer (BD Bioscience, East Rutherford, NJ, USA).

[4] = tested on: Jurkat E6.1 cells; test: Cell cycle analysis with RNase/PI stain by flow cytometry; format: cell-based, human; details: Jurkat E6.1, treated at IC50 concentration, 24 h; for cells in G0/G1 phase / cells in G2/M phase / cells in S phase: mean ± SEM
Description: Cell cycle analysis was performed according to the manufacturer’s instructions using PI/RNase Staining Buffer (BD Bioscience, East Rutherford, NJ, USA). For this assay, the Jurkat E6.1 cell line was cultured in 6-well culture plates with a final concentration of 1.0 × 10^6 cells/mL and treated with organotin(IV) dithiocarbamate compounds for 24 h, with vincristine as the positive control. The concentration of each treatment used was based on the IC50 values obtained from the WST-1 assay. After the incubation period, 500 µL of cell suspension was washed twice with cold PBS and fixed overnight with 500 µL of 70% ethanol. The cells were then stained with 500 µL RNase/PI stain and measured using a BD FACS Canto II flow cytometer (BD Bioscience, East Rutherford, NJ, USA). The cell cycle phases were analyzed using the ModFit LT software (Verity Software House).

[5] = in vitro; details: human
Description: as §1, §2, §3

[6] = tested on: Jurkat E6.1 cells; set-up: method as in earlier work; details: ref 31 (Kamaludin et al.); cited from earlier work
[7] = WST-1, 24 h exposure, highest concentration 5.0 μM, mean ± SEM, n = 3

Compound	IC50 [1, 7]	Selectivity Index (SI) [2]	IC50 [2, 7]	cell population in early apoptotic phase [3]	cell population in late apoptotic phase [3]	total apoptosis population [3]	Phases of Cell Cycle Arrest [4]	cells in G0/G1 phase [4]	cells in G2/M phase [4]	cells in S phase [4]	kind of effect on the cells (cytostatic or cytotoxic) [2]	Value of IC50 Jurkat E6.1 [2, 7]	IC50 ([1]; Homo sapiens, WIL2-NS, 24 h)	IC50 ([2]; Homo sapiens, Jurkat E6.1, 24 h)	viability at 24 h, 0.3 µM [5]	IC50 [6]
CC(C)N(C(=S)[S][Sn]([S]C(=S)N(C(C)C)C(C)C)([c]1ccccc1)[c]1ccccc1)C(C)C [ODTC 1, diphenyltin(IV) diisopropyl dithiocarbamate]	1390 ± 460 nM	0.96	1450 ± 20 nM	12.23 ± 1.93%	13.17 ± 1.13%	25.4%	does not cause cell cycle arrest at any phase; also recorded: Not cell cycle specific	–	–	–	–	–	–	–	–	–
C=CCN(CC=C)C(=S)[S][Sn]([S]C(=S)N(CC=C)CC=C)([c]1ccccc1)[c]1ccccc1 [ODTC 2, diphenyltin(IV) diallyl dithiocarbamate]	520 ± 140 nM	0.50	1050 ± 20 nM	17.20 ± 2.69%	30.07 ± 2.38%	47.27%	–	21.63% ± 3.17	19.03% ± 0.20	59.37% ± 3.07	–	–	–	–	–	–
CC(C)N(C(=S)[S][Sn]([c]1ccccc1)([c]1ccccc1)[c]1ccccc1)C(C)C [ODTC 3, triphenyltin(IV) diisopropyl dithiocarbamate]	750 ± 70 nM	1.11	670 ± 60 nM	59.70 ± 1.96%	27.80 ± 2.17%	87.5%	–	68.37% ± 4.78	4.34% ± 0.99	27.29% ± 5.12	–	–	–	–	–	–
C=CCN(CC=C)C(=S)[S][Sn]([c]1ccccc1)([c]1ccccc1)[c]1ccccc1 [ODTC 4, triphenyltin(IV) diallyl dithiocarbamate]	670 ± 140 nM	0.71	940 ± 80 nM	49.70 ± 2.84%	38.63 ± 2.73%	88.33%	–	13.22% ± 2.30	22.67% ± 3.54	64.10% ± 4.46	–	–	–	–	–	–
CCN(CC)C(=S)[S][Sn]([c]1ccccc1)([c]1ccccc1)[c]1ccccc1 [ODTC 5, triphenyltin(IV) diethyl dithiocarbamate]	790 ± 50 nM	0.86	920 ± 50 nM	56.50 ± 1.64%	26.47 ± 1.23%	82.97 ± 2.84%	–	9.84% ± 0.71	31.46% ± 2.86	58.70% ± 3.37	–	–	–	–	–	–
CC(C)N(C(=S)[S][Sn]([CH3])([CH3])[S]C(=S)N(C(C)C)C(C)C)C(C)C [ODTC 6, dimethyltin(IV) diisopropyl dithiocarbamate]	5000 ± 20 nM	–	–	–	–	–	–	–	–	–	cytostatic effect	does not produce IC50 value at the tested range of concentration	–	–	–	–
CCN(CC)C(=S)[S][Sn]([CH3])([CH3])[S]C(=S)N(CC)CC [ODTC 7, dimethyltin(IV) diethyl dithiocarbamate]	500 ± 20 nM	0.15	3400 ± 250 nM	13.13 ± 2.62%	14.93 ± 1.35%	28.06%	–	23.41% ± 5.37	17.39% ± 4.52	57.19% ± 2.89	–	–	–	–	–	–
CC[C@]1(O)C[C@H]2CN(CCc3c([nH]c4ccccc34)[C@@](C(=O)OC)(c3cc4c(cc3OC)N(C=O)[C@H]3[C@@](O)(C(=O)OC)[C@H](OC(C)=O)[C@]5(CC)C=CCN6CC[C@]43[C@@H]65)C2)C1 [Vincristine (positive control), Vincristine, reference compound]	–	0.96	–	36.07 ± 2.85%	18.57 ± 1.31%	54.64%	–	66.76% ± 1.39	8.00% ± 0.00	25.24% ± 1.39	cytostatic effects	–	230 ± 30 nM	240 ± 20 nM	40%	–
COc1cccc2c1C(=O)c1c(O)c3c(c(O)c1C2=O)C[C@@](O)(C(=O)CO)C[C@@H]3O[C@H]1C[C@H](N)[C@H](O)[C@H](C)O1 [doxorubicin]	–	–	–	–	–	–	–	–	–	–	–	–	–	–	–	100 nM
